Reference: PubChem BioAssay (NCI)
Where “and” joins values, the source holds several entries; their conditions need not be identical. Identical values can stand only once.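 Grown in 96-well plates, cells were treated for 48 hours with each compound at five concentrations. Insufficient inhibition: endpoint recorded as highest concentration tested. The concentration for 50% growth inhibition is given as GI50. Definition used: TGI = concentration required for complete inhibition of growth.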

Assays:
Test in all cases: NCI anticancer screen, dose series, 48 h
HOP-18 NSCLC = test system: HOP-18 NSCLC
U251 CNS = test system: U251 CNS
LXFL 529 NSCLC = test system: LXFL 529 NSCLC
SNB-78 CNS = test system: SNB-78 CNS
LOX IMVI melanoma = test system: LOX IMVI melanoma
SN12C renal = test system: SN12C renal
XF 498 CNS = test system: XF 498 CNS
OVCAR-8 ovarian = test system: OVCAR-8 ovarian
KM20L2 colon = test system: KM20L2 colon
DMS 273 small cell lung = test system: DMS 273 small cell lung
T-47D breast = test system: T-47D breast
MDA-MB-435 = test system: MDA-MB-435
DU-145 prostate = test system: DU-145 prostate

| SMILES | TGI (HOP-18 NSCLC) [µM] | TGI (U251 CNS) | TGI (LXFL 529 NSCLC) [µM] | TGI (SNB-78 CNS) [µM] | TGI (LOX IMVI melanoma) | TGI (SN12C renal) [µM] | TGI (XF 498 CNS) [µM] | TGI (OVCAR-8 ovarian) [µM] | TGI (KM20L2 colon) [µM] | TGI (DMS 273 small cell lung) [µM] | TGI (T-47D breast) [µM] | TGI (MDA-MB-435) [µM] | TGI (DU-145 prostate) [µM] | GI50 (LOX IMVI melanoma) | GI50 (OVCAR-8 ovarian) |
| --- | --- | --- | --- | --- | --- | --- | --- | --- | --- | --- | --- | --- | --- | --- | --- |
| COC(=O)C1=C(c2ccc(Cl)cc2)C(O)N=C(NN)N1 (stereo not given) | > 100 | > 100 µM | > 100 | > 100 | > 100 µM | > 100 | > 100 | > 100 |  |  |  |  |  |  |  |
| CC1=C(C(=O)Nc2ccccc2C)C(c2ccccc2C)C(C(=O)Nc2ccccc2C)=C(C)N1 | 37 | 40.3 µM | > 10 | > 100 | 30.3 µM | 35.8 | 39.2 | 36.8 | 38.9 |  |  |  |  |  |  |
| CC(=O)O/N=C/c1cc2c(cc1Br)OCO2 |  | > 34.9 µM | > 349 |  | > 349 µM | > 349 | > 349 | > 349 | > 349 | > 349 |  |  |  |  |  |
| O=C1NN=CN2C(=O)CCC12 (stereo not given) |  | > 100 µM | > 100 | > 100 | > 100 µM | > 100 | > 100 | > 100 | > 100 | > 100 |  |  |  |  |  |
| NC(=O)N/N=C(\CCC(=O)N(Cc1ccccc1)Cc1ccccc1)CC(=O)c1ccc(F)cc1 | > 100 | > 100 µM | > 100 | > 100 | > 100 µM | > 100 |  | > 100 | > 100 |  |  |  |  |  |  |
| N#CC(C(=O)CCC(=O)Nc1ccc(Cl)c(Cl)c1)c1ccc(Cl)cc1 (stereo not given) | > 100 | > 100 µM | > 100 | > 100 | > 100 µM | > 100 |  | > 100 | > 100 | > 100 |  |  |  |  |  |
| CCCCCCCCCCCCCCCCCc1nnc(N)o1 |  | > 100 µM | > 100 | > 100 | > 100 µM | > 100 | > 100 | > 100 | > 100 | > 100 |  |  |  |  |  |
| CC1CC(=O)c2c(ccc3c2C(=O)c2cccc(O)c2C3=O)C1 (stereo not given) | 21.2 | 26.5 µM | 14.1 | 45.7 | 16 µM |  | 25.1 | 11.1 |  | 18.5 |  |  |  |  |  |
| COc1cc2nncc(SCc3ccc(Cl)c(Cl)c3)c2cc1OC | > 100 | > 100 µM | > 100 | > 100 | > 100 µM | > 100 | 81.3 | > 100 | > 100 | > 100 | > 100 | > 100 | > 100 |  |  |
| O=C(CC(=O)c1ccccc1)C(=O)NC12CC3CC(CC(C3)C1)C2 | > 100 | > 100 µM | > 100 | > 100 | > 50 µM | > 100 | > 100 | > 100 | > 100 | > 70.2 |  |  |  |  |  |
| NS(=O)(=O)c1ccc(NC(=O)c2cccc3c(Nc4ccc(S(N)(=O)=O)cc4)c4ccccc4nc23)cc1 | > 100 | > 100 µM | 85.9 | > 100 | > 100 µM | > 100 | 74.6 | > 100 | > 100 | 5.15 |  |  |  |  |  |
| CCOC(=O)c1cn(CC)c2cc3c(cc2c1=O)SCS3 | > 100 | > 100 µM | > 100 |  | > 100 µM | > 100 |  | > 100 | > 100 | > 100 |  |  |  |  |  |
| COc1ccc(/C(C#N)=C(/N)SCc2ccccc2Cl)cc1 | 38.2 | 32.6 µM | 31.2 | 64.2 | 29 µM | 91.3 | 30.3 | > 10 | 34.3 |  |  |  |  |  |  |
| O=C1NN=C(c2ccc([N+](=O)[O-])cc2)C1n1nc(-c2ccccc2)c2ccccc2c1=O (stereo not given) | > 100 | > 100 µM | > 100 | > 100 | > 100 µM | > 100 | > 100 | > 100 | > 100 | > 68.3 |  |  |  |  |  |
| OC1c2ccccc2C2C(O)c3ccccc3C12 (stereo not given) | > 100 | > 100 µM | > 100 |  | > 100 µM | > 100 |  | > 100 | > 100 | > 100 |  |  |  |  |  |
| O=C(CC(=O)C1CCOC1=O)C(=O)Nc1ccc(Cl)cc1 (stereo not given) |  | > 100 µM | > 100 | > 100 | > 100 µM | > 100 |  | > 100 | > 100 | > 100 |  |  |  |  |  |
| c1ccc2c(CN3CCC(C4CCN(Cc5cccc6ccccc56)CC4)CC3)cccc2c1 | > 100 | 25.5 µM and 47.6 µM | 21.8 | 73.7 | 16.8 µM and 23.4 µM | > 100 | 10.4 | > 72.4 | 10.3 | 22.9 | 89.1 | 11.4 | > 100 | 4.33 µM and 10.2 µM | 21.8 µM and 6.98 µM |
| O=c1[nH]cnc2c1ncn2CCCCO | > 100 |  | > 100 | > 100 | > 100 µM | > 100 |  | > 100 | > 100 |  |  |  |  |  |  |
| Cc1cc(C)nc(NS(=O)(=O)c2ccc(NC(=O)c3cccc4c(N)c5ccccc5nc34)cc2)n1 |  | > 100 µM | > 100 | > 100 | > 100 µM | > 100 | > 100 | > 100 | > 100 | > 100 |  |  |  |  |  |
| COC(=O)c1nc(N)nc(C(=O)OC)c1C(=O)c1ccccc1 | > 100 | > 100 µM | > 100 |  | > 100 µM | > 100 | > 100 | > 100 | > 100 |  |  |  |  |  |  |
| CC(=O)O[C@H]1CC[C@@]2(C)C(=C/C(=N\[N+](=O)[O-])[C@H]3C4CCC([C@H](C)CCCC(C)C)[C@@]4(C)CCC32)C1 (stereo not given in full) |  |  | > 100 |  | > 100 µM | > 100 | > 100 | > 100 | > 100 | > 100 |  |  |  |  |  |
